According to patent US8252796B2, “1-butyl-2-hydroxyaralkyl piperazine derivatives and the uses as anti-depression medicine thereof” (CSPC Zhonggi Pharmaceutical Technology (Shijiazhuang) Co. …, priority 2008, dated 2012):
Read-outs that look alike come from different tables or passages of the source. Each block holds one molecule with its values, some of them ahead of it.

Legend:
[1] = molecular target: T1, reuptake of 5-HT by brain synaptosomes (prefrontal cortex) (Rattus norvegicus, UniProt P31652); test: Inhibition of [3H]5-HT reuptake by rat brain synaptosomes, single concentration (Example 35); type: biochemical; settings: test substance 10 μmol/L; inhibitory rate of 0.1 mM venlafaxine taken as 100%
T1 construct: from tissue; host or cells: rat prefrontal cortex synaptosomes
Description: (§1) Studies on the reuptake of monoamine neurotransmitters by brain synaptosomes was performed, which is a currently important mean adopted in the worldwide in pharmacological studies of central nervous. This method can not only be used to study the action mechanism of a drug, but also be used for screening new drugs acting by this mechanism.
(§2) Male SD rats were sacrificed by cervical dislocation and then the brains thereof were taken out rapidly by decollation and placed on ice. Related rain tissues (for [^3H]5-HT and [^3H]NA reuptake experiment, prefrontal cortex was taken; for [^3H]DA reuptake experiment, striatum was taken) were separated and weighed. 10 times (V/W) of 0.32 mol/L ice-cold sucrose solution was added and was homogenized electrically with glass-teflon. The homogenate was centrifugated at 4° C. at 1000 g×10 min. Then the supernatant was taken and centrifugated at 4° C. at 17000 g×20 min. The precipitation was suspended in 30 volume of KRH Buffer (125 mM NaCl, 4.8 mM KCl, 1.2 mM CaCl2, 1.2 mM MgSO4, 1.0 mM KH2PO4, 22 mM NaHCO3, 25 mM HEPES, 10 mM Glucose, 10 μM Pargyline, 0.2 mg/ml Ascorbic Acid) and then was preserved in an ice bath for use. (for NA reuptake experiment, the cortex needed was suspended in 20 volume of KRH Buffer)
(§3) Stock solution of the test substance was thawed immediately before use and diluted with KBH Buffer to 100 μmol/L, 50 μl thereof was added in 500 μl of total reaction system, and the final concentration was 10 μmol/L. Then 50 μl suspended synaptic prepared above was added and mixed evenly, incubated in water bath for 30 min at 37° C. Then […] [^3H] 5-HT (50 nmol/L [^3H]DA or […] [^3H]NA) was added. After incubated at 37° C. for 10 min, the reaction system was immediately taken out and the reaction was stopped by adding 2 ml of ice-cold 150 mmol/L Tris-HCl buffer solution. The samples were collected on the circular fiberglass membrane by vacuum filtration, and the membrane was washed 3 times with 3 ml of ice-cold Tris-HCl buffer solution. The filtration membrane was removed, baked for 15 min in a far-infrared oven and placed into an EP tube. 1.5 ml scintillation fluid was added overnight and was tested by liquid scintillation counter. For the solvent control total binding tube and the non-specific binding tube, no test substance was added; for the total binding tube, 50 μl solvent was added.

[2] = molecular target: T2, reuptake of NA by brain synaptosomes (prefrontal cortex) (Rattus norvegicus, UniProt Q9WTR4); test: Inhibition of [3H]NA reuptake by rat brain synaptosomes, single concentration (Example 35); type: biochemical; settings: test substance 10 μmol/L; inhibitory rate of 0.1 mM venlafaxine taken as 100%
T2 construct: from tissue; host or cells: rat prefrontal cortex synaptosomes
Description: as §1, §2, §3

[3] = molecular target: T3, reuptake of DA by brain synaptosomes (striatum) (Rattus norvegicus, UniProt P23977); test: Inhibition of [3H]DA reuptake by rat brain synaptosomes, single concentration (Example 35); type: biochemical; settings: test substance 10 μmol/L; inhibitory rate of 0.1 mM 6-hydroxy DA taken as 100%
T3 construct: from tissue; host or cells: rat striatum synaptosomes
Description: as §1, §2, §3

ICR mice = test: Mice Forced Swimming Test (in vivo antidepression activity); settings: for swimming test: immobility time: n = 12, mean±SD
[4] = molecular target: T4, reuptake of [3H]5-HT by prefrontal cortex synaptosomes (Rattus norvegicus, UniProt P31652); test: IC50 for inhibiting reuptake of [3H]5-HT by brain synaptosomes (Example 36); type: biochemical; settings: mean, n = 3~4
T4 construct: from tissue; host or cells: rat prefrontal cortex synaptosomes
Description: as §2, with “The precipitation was suspended in 30 volume of KRH Buffer (125 mM NaCl, 4.8 mM KCl, 1.2 mM CaCl2, 1.2 mM MgSO4, 1.0 mM KH2PO4, 22 mM NaHCO3, 25 mM HEPES, 10 mM Glucose, 10 μM Pargyline, 0.2 mg/ml Ascorbic Acid) and then was preserved in an ice bath for use.” left out
(§4) The compounds were used for the studies on inhibition effect (IC50) on reuptake of [^3H]5-HT/NA/DA. At least 5 concentrations each time were settled for each test compound. Each concentration was determined by the average of double twin tubes and the test was repeated for more than 3 times. A series of concentrations of the compounds were prepared by gradient dilution before use. 50 μl thereof was added in total reaction system. Then 50 μl suspended synaptic membrane was added and mixed evenly, incubated in water bath at 37° C. for 30 min. Then 10 nmol/L [^3H] 5-HT (or 50 nmol/L [^3H]DA or 40 nmol/L [^3H]NA) was added and incubated in water bath at 37° C. for 10 min (for [^3H]NA, incubated for 5 min). For the [^3H]5-HT reuptake experiment, 50 μL of fluoxetine (100 μmol/L) was added to the non-specific binding tube; for the [^3H]DA reuptake experiment, 50 μL of cocaine (600 μmol/L) was added to the non-specific binding tube; for the [^3H]NA reuptake experiment, 50 μL of desipramine (100 μmol/L) was added to the non-specific binding tube; for the solvent control, solvent was added to the total binding tube, but no test compound added.
(§5) Sigmoidal curve fitting was performed for the data obtained from all of the test drugs by Origin 6.1, and the IC50 value was calculated.

[5] = molecular target: T5, reuptake of [3H]NA by prefrontal cortex synaptosomes (Rattus norvegicus, UniProt Q9WTR4); test: IC50 for inhibiting reuptake of [3H]NA by brain synaptosomes (Example 36); type: biochemical; settings: mean, n = 3~4
T5 construct: from tissue; host or cells: rat prefrontal cortex synaptosomes
Description: as §2
(§6) 1. Preparation of Rat Brain Synaptosomes (the Same as Example 35)
as §4, §5

[6] = molecular target: T6, reuptake of [3H]DA by striatum synaptosomes (Rattus norvegicus, UniProt P23977); test: IC50 for inhibiting reuptake of [3H]DA by brain synaptosomes (Example 36); type: biochemical; settings: mean, n = 3~4
T6 construct: from tissue; host or cells: rat striatum synaptosomes
Description: as §2, §6, §4, §5

[7] = Pharmacokinetics and bioavailability, single i.v. and oral administration in SD rat; type: in vivo; settings: male, plasma; for Cmax: read-out: Cmax; for AUC (0-t): read-out: AUC (0-t); for half-life: read-out: half life (T½) (converted)
Description: To study the pharmacokinetics parameters and the bioavailability of VIII-9, VIII-10 and SIPI5286 when single i.v. and oral administration in SD rat
Eighteen male rats were randomized into 6 groups and were administrated with the three compounds via i.v. and oral route, respectively. The dosage was 10 mg/kg (IV) and 50 mg/kg (PO). The test substance was dissolved in the solution of 5% DMSO/95% HP-β-CD aqueous solution (30%), and were administrated to the animal via i.v. and oral route. Blood plasma was collected at a serial of time points after i.v. and oral administration, and the blood drug concentrations were determined by LC/MS/MS. Then the pharmacokinetics parameters and the bioavailability were calculated based on the blood drug concentrations.

T2 sequence (Q9WTR4 1-597): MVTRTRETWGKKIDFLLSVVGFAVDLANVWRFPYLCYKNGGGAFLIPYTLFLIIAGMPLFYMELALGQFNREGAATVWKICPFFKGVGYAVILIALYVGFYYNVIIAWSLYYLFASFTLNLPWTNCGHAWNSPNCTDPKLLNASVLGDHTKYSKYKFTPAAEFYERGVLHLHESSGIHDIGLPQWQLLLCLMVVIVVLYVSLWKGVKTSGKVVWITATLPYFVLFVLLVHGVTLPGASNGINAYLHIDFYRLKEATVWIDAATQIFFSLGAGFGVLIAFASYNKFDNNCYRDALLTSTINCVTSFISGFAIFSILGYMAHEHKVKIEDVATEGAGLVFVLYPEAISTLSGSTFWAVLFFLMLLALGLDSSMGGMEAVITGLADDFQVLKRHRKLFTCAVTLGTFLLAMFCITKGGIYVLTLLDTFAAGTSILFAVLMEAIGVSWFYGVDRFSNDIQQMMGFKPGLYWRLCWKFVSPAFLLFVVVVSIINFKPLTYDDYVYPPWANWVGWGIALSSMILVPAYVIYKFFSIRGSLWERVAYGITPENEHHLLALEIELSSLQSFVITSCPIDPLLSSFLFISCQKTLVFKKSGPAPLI
T1 sequence (P31652 whole entry): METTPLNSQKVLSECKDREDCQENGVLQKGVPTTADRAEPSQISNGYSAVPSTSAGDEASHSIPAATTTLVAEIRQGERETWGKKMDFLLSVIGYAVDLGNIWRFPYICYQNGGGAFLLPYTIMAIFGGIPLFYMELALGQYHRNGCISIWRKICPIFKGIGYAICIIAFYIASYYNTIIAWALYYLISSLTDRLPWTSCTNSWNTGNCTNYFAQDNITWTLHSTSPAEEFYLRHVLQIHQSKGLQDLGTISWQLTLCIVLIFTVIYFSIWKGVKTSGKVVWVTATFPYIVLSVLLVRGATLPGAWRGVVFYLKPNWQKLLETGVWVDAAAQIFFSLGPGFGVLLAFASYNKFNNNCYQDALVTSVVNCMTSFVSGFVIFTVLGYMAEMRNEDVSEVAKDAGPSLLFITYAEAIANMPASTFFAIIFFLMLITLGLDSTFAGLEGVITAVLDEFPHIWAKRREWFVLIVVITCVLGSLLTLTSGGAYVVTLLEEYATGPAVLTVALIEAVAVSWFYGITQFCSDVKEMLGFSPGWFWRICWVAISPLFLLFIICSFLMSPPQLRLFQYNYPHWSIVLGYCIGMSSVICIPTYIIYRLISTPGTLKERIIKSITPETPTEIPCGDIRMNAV
T3 sequence (P23977 whole entry): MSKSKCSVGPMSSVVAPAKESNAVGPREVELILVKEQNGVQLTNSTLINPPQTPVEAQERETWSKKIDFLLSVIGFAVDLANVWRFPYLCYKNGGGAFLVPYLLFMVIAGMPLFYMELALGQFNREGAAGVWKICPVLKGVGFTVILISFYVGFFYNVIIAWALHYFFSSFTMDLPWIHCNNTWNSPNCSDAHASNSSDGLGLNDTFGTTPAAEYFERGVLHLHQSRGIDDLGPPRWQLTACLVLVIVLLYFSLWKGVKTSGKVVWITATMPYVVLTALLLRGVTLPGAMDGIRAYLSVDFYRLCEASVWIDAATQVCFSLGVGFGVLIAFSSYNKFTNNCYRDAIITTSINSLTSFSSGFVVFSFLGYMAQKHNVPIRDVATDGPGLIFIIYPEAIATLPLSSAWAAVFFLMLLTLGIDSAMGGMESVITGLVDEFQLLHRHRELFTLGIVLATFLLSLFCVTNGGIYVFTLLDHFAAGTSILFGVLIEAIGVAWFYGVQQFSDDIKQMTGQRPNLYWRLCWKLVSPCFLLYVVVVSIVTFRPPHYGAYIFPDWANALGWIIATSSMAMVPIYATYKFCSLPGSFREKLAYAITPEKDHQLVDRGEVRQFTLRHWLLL
T5 sequence (Q9WTR4 1-597): as the sequence (Q9WTR4 1-597) above
T4 sequence (P31652 whole entry): as the sequence (P31652 whole entry) above
T6 sequence (P23977 whole entry): as the sequence (P23977 whole entry) above

- Inhibition on the reuptake of 5-HT(%) [1]: 65.1%
- inhibition on the reuptake of NA(%) [2]: 144%
- inhibition on the reuptake of DA(%) [3]: 96%
SMILES: CCCC[C@@H]([C@H](O)c1ccc2c(Cl)c(OC)ccc2c1)N1CCN(c2ccccc2OC)CC1 (racemic) [VIII-3, (1SR,2RS)-N^1-o-methoxylphenyl-N^4-[1-butyl-2-(5′-chloro-6′-methoxyl-2′-naphthyl)hydroxyethyl]piperazine]

- Inhibition on the reuptake of 5-HT(%) [1]: 82.3%
- inhibition on the reuptake of NA(%) [2]: 78.9%
- inhibition on the reuptake of DA(%) [3]: 94%
SMILES: CCCC[C@@H]([C@@H](O)c1ccc2c(Cl)c(OC)ccc2c1)N1CCN(CC=Cc2ccccc2)CC1 (racemic) [VIII-22, (1SR,2SR)-N^1-cinnamyl-N^4-[1-butyl-2-(5′-chloro-6′-methoxyl-2′-naphthyl)hydroxyethyl]piperazine]

SMILES: CCCC[C@H]([C@H](O)c1ccc2c(Cl)c(OC)ccc2c1)N1CCN(C(c2ccccc2)c2ccccc2)CC1 (racemic) [VIII-20, (1SR,2SR)-N^1-benzhydryl-N^4-[1-butyl-2-(5′-chloro-6′-methoxyl-2′-naphthyl)hydroxyethyl]piperazine]
- Inhibition on the reuptake of 5-HT(%) [1]: 0%
- inhibition on the reuptake of NA(%) [2]: 78%
- inhibition on the reuptake of DA(%) [3]: 57%

SMILES: COc1ccc(C(CN(C)C)C2(O)CCCCC2)cc1 (centres unmarked) [venlafaxine, reference compound]
- inhibition on the reuptake of NA(%) [2]: 100%
- swimming test: immobility time (ICR mice; one week oral administration, 50 mg/kg): 83.5 ± 29.0 s

SMILES: NCCc1cc(O)c(O)cc1O [6-hydroxy DA, reference compound]
- inhibition on the reuptake of DA(%) [3]: 100%

SMILES: COc1ccc2cc([C@@H](O)[C@H](C)N3CCN(Cc4ccccc4)CC3)ccc2c1Cl [SIPI5286, reference compound]
- IC50 [4]: 12 nM
- IC50 [5]: 185 nM
- IC50 [6]: 1150 nM
- ED50 (ICR mice; Mus musculus, single oral administration): 28.9 mg/kg
- swimming test: immobility time (ICR mice; one week oral administration, 10.4 mg/kg): 123.8 ± 21.68 s
- swimming test: immobility time (ICR mice; one week oral administration, 17.3 mg/kg): 102.9 ± 37.94 s
- swimming test: immobility time (ICR mice; one week oral administration, 28.8 mg/kg): 97.2 ± 28.33 s
- swimming test: immobility time (ICR mice; one week oral administration, 48 mg/kg): 95.5 ± 27.0 s
- swimming test: immobility time (ICR mice; single oral administration, 10.4 mg/kg): 107.9 ± 37.19 s
- swimming test: immobility time (ICR mice; single oral administration, 17.3 mg/kg): 105.4 ± 33.11 s
- swimming test: immobility time (ICR mice; single oral administration, 28.8 mg/kg): 92.1 ± 23.11 s
- swimming test: immobility time (ICR mice; single oral administration, 48 mg/kg): 90.1 ± 26.02 s
- Cmax ([7]; iv, i.v. 10 mg/kg, (5 min)): 13900 ng/mL
- AUC (0-t) ([7]; iv, i.v. 10 mg/kg): 12600 ng·h/mL
- half-life ([7]; iv, i.v. 10 mg/kg): 3.41 h
- bioavailability ([7]; oral 50 mg/kg vs i.v. 10 mg/kg, read-out: bioavailability): 51.6%
- AUC (0-t) ([7]; oral 50 mg/kg): 30300 ng·h/mL
- Cmax ([7]; oral 50 mg/kg): 6860 ng/mL
- Tmax ([7]; oral 50 mg/kg, read-out: Tmax): 0.5 h
- half-life ([7]; oral 50 mg/kg): 5.71 h

SMILES: CCCC[C@H]([C@@H](O)c1ccc2c(Cl)c(OC)ccc2c1)N1CCN(C(c2ccccc2)c2ccccc2)CC1 (racemic) [VIII-19, (1SR,2RS)-N^1-benzhydryl-N^4-[1-butyl-2-(5′-chloro-6′-methoxyl-2′-naphthyl)hydroxyethyl]piperazine]
- Inhibition on the reuptake of 5-HT(%) [1]: 73.4%
- inhibition on the reuptake of NA(%) [2]: 103.6%
- inhibition on the reuptake of DA(%) [3]: 95%

SMILES: COc1ccc2cc(C(O)C(C)N3CCN(Cc4ccccc4)CC3)ccc2c1Cl (centres unmarked) [SIPIyy24, N^1-benzyl-N^4-[1-methyl-2-(5′-chloro-6′-methoxyl-2′-naphthyl) hydroxyethyl]piperazine, reference compound]
- IC50 [4]: 200 nM
- IC50 [5]: 1000 nM
- IC50 [^3H]DA reuptake [6]: No activity detected

- Inhibition on the reuptake of 5-HT(%) [1]: 23%
- inhibition on the reuptake of NA(%) [2]: 146.5%
- inhibition on the reuptake of DA(%) [3]: 68%
SMILES: CCCC[C@@H]([C@@H](O)c1ccc2c(Cl)c(OC)ccc2c1)N1CCN(c2ccccc2OC)CC1 (racemic) [VIII-4, (1SR,2SR)-N^1-o-methoxylphenyl-N^4-[1-butyl-2-(5′-chloro-6′-methoxyl-2′-naphthyl)hydroxyethyl]piperazine]

SMILES: CCCC[C@H]([C@@H](O)c1ccc2c(Cl)c(OC)ccc2c1)N1CCN(CC=Cc2ccccc2)CC1 (racemic) [VIII-21, (1SR,2RS)-N^1-cinnamyl-N^4-[1-butyl-2-(5′-chloro-6′-methoxyl-2′-naphthyl)hydroxyethyl]piperazine]
- Inhibition on the reuptake of 5-HT(%) [1]: 81%
- inhibition on the reuptake of NA(%) [2]: 87.5%
- inhibition on the reuptake of DA(%) [3]: 90%
